{"source": "PubChem BioAssay AID1963965", "about": "(Molecular Pharmacology Branch, DTP, NCI, 2024);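 note: spheroids exposed to compounds for seven days before viability read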;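 for viability, T/C: luminescence used as a proxy for viable cell amount; percent viability relative to DMSO vehicle control as 100%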", "test_system": "996289-038-R-J1-PDC spheroid viability", "test": "Anticancer human tumor 996289-038-R-J1-PDC patient-derived colon adenocarcinoma cell line growth inhibition [PI3K]", "conditions": "spheroids with HUVEC and MSC; for viability, T/C: stronger effect = lower value", "how_it_was_run": "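Combination activity was assessed by viability in multicellular tumor spheroids carrying HUVEC and MSC components. Agents were tested with PI3K inhibitors from a Cmax-based top dose (or 10 microM) downward in half-log increments.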", "key": {"[1]": {"conditions": "curve of first compound, second compound 0.0316 µM"}, "[2]": {"conditions": "curve of first compound, second compound 0.1 µM"}, "[3]": {"conditions": "curve of first compound, second compound 0.316 µM"}, "[4]": {"conditions": "curve of first compound, second compound 1 µM"}, "[5]": {"conditions": "second compound 0.0316 µM, first compound 0.0316 µM"}, "[6]": {"conditions": "second compound 0.0316 µM, first compound 0.1 µM"}, "[7]": {"conditions": "second compound 0.1 µM, first compound 0.0316 µM"}, "[8]": {"conditions": "second compound 0.1 µM, first compound 0.1 µM"}, "[9]": {"conditions": "second compound 0.316 µM, first compound 0.0316 µM"}, "[10]": {"conditions": "second compound 0.316 µM, first compound 0.1 µM"}, "[11]": {"conditions": "second compound 1 µM, first compound 0.0316 µM"}, "[12]": {"conditions": "second compound 1 µM, first compound 0.1 µM"}}, "data": [{"smiles": "CCCS(=O)(=O)Nc1ccc(F)c(C(=O)c2c[nH]c3ncc(-c4ccc(Cl)cc4)cc23)c1F", "note": "+ COc1c(OCCCN2CCOCC2)ccc2c3n(c(=NC(=O)c4cnc(N)nc4)nc12)CCN3", "values": [{"measurement": "IC50", "setting": "curve of first compound, second compound 0.00316 µM", "result": 6030, "unit": "nM"}, {"measurement": "IC50", "setting": "curve of first compound, second compound 0.01 µM", "result": 6090, "unit": "nM"}, {"measurement": "IC50", "setting": "[1]", "result": 5100, "unit": "nM"}, {"measurement": "IC50", "setting": "[2]", "result": 1770, "unit": "nM"}, {"measurement": "IC50", "setting": "[3]", "result": "< 31.6", "unit": "nM"}, {"measurement": "IC50", "setting": "[4]", "result": "< 31.6", "unit": "nM"}, {"measurement": "viability, T/C", "setting": "second compound 0.00316 µM, first compound 0.0316 µM", "result": 98.9, "unit": "%"}, {"measurement": "viability, T/C", "setting": "second compound 0.00316 µM, first compound 0.1 µM", "result": 81.6, "unit": "%"}, {"measurement": "viability, T/C", "setting": "second compound 0.00316 µM, first compound 0.316 µM", "result": 94.6, "unit": "%"}, {"measurement": "viability, T/C", "setting": "second compound 0.00316 µM, first compound 1 µM", "result": 108, "unit": "%"}, {"measurement": "viability, T/C", "setting": "second compound 0.00316 µM, first compound 3.16 µM", "result": 87.5, "unit": "%"}, {"measurement": "viability, T/C", "setting": "second compound 0.00316 µM, first compound 10 µM", "result": 19.9, "unit": "%"}, {"measurement": "viability, T/C", "setting": "second compound 0.01 µM, first compound 0.0316 µM", "result": 96.4, "unit": "%"}, {"measurement": "viability, T/C", "setting": "second compound 0.01 µM, first compound 0.1 µM", "result": 92.6, "unit": "%"}, {"measurement": "viability, T/C", "setting": "second compound 0.01 µM, first compound 0.316 µM", "result": 87.4, "unit": "%"}, {"measurement": "viability, T/C", "setting": "second compound 0.01 µM, first compound 1 µM", "result": 85.7, "unit": "%"}, {"measurement": "viability, T/C", "setting": "second compound 0.01 µM, first compound 3.16 µM", "result": 90.6, "unit": "%"}, {"measurement": "viability, T/C", "setting": "second compound 0.01 µM, first compound 10 µM", "result": 19.4, "unit": "%"}, {"measurement": "viability, T/C", "setting": "[5]", "result": 71, "unit": "%"}, {"measurement": "viability, T/C", "setting": "[6]", "result": 78.2, "unit": "%"}, {"measurement": "viability, T/C", "setting": "second compound 0.0316 µM, first compound 0.316 µM", "result": 72.5, "unit": "%"}, {"measurement": "viability, T/C", "setting": "second compound 0.0316 µM, first compound 1 µM", "result": 80.2, "unit": "%"}, {"measurement": "viability, T/C", "setting": "second compound 0.0316 µM, first compound 3.16 µM", "result": 71.1, "unit": "%"}, {"measurement": "viability, T/C", "setting": "second compound 0.0316 µM, first compound 10 µM", "result": 19.8, "unit": "%"}, {"measurement": "viability, T/C", "setting": "[7]", "result": 63.5, "unit": "%"}, {"measurement": "viability, T/C", "setting": "[8]", "result": 49.7, "unit": "%"}, {"measurement": "viability, T/C", "setting": "second compound 0.1 µM, first compound 0.316 µM", "result": 66.9, "unit": "%"}, {"measurement": "viability, T/C", "setting": "second compound 0.1 µM, first compound 1 µM", "result": 53.4, "unit": "%"}, {"measurement": "viability, T/C", "setting": "second compound 0.1 µM, first compound 3.16 µM", "result": 44.4, "unit": "%"}, {"measurement": "viability, T/C", "setting": "second compound 0.1 µM, first compound 10 µM", "result": 12.2, "unit": "%"}, {"measurement": "viability, T/C", "setting": "[9]", "result": 32.3, "unit": "%"}, {"measurement": "viability, T/C", "setting": "[10]", "result": 42.4, "unit": "%"}, {"measurement": "viability, T/C", "setting": "second compound 0.316 µM, first compound 0.316 µM", "result": 35.9, "unit": "%"}, {"measurement": "viability, T/C", "setting": "second compound 0.316 µM, first compound 1 µM", "result": 36.7, "unit": "%"}, {"measurement": "viability, T/C", "setting": "second compound 0.316 µM, first compound 3.16 µM", "result": 26, "unit": "%"}, {"measurement": "viability, T/C", "setting": "second compound 0.316 µM, first compound 10 µM", "result": 8.03, "unit": "%"}, {"measurement": "viability, T/C", "setting": "[11]", "result": 19.9, "unit": "%"}, {"measurement": "viability, T/C", "setting": "[12]", "result": 22.4, "unit": "%"}, {"measurement": "viability, T/C", "setting": "second compound 1 µM, first compound 0.316 µM", "result": 20.2, "unit": "%"}, {"measurement": "viability, T/C", "setting": "second compound 1 µM, first compound 1 µM", "result": 15.9, "unit": "%"}, {"measurement": "viability, T/C", "setting": "second compound 1 µM, first compound 3.16 µM", "result": 14, "unit": "%"}, {"measurement": "viability, T/C", "setting": "second compound 1 µM, first compound 10 µM", "result": 6.42, "unit": "%"}]}, {"smiles": "CC(Nc1ncnc2nc[nH]c12)c1cc2cccc(Cl)c2c(=O)n1-c1ccccc1", "note": "(stereo not given)", "values": [{"measurement": "viability, T/C", "setting": "compound 0.0316 µM", "result": "99.9% [middle of 8 runs]"}, {"measurement": "viability, T/C", "setting": "compound 0.1 µM", "result": "98% [middle of 8 runs]"}, {"measurement": "viability, T/C", "setting": "compound 0.316 µM", "result": "97.6% [middle of 8 runs]"}, {"measurement": "viability, T/C", "setting": "compound 3.16 µM", "result": "89.2% [middle of 8 runs]"}, {"measurement": "viability, T/C", "setting": "compound 10 µM", "result": "95.7% [middle of 8 runs]"}, {"measurement": "IC50", "setting": "compound alone, run of 06/13/2023", "result": "> 10000", "unit": "nM"}]}, {"smiles": "Cn1ncnc1[C@H]1c2n[nH]c(=O)c3cc(F)cc(c23)N[C@@H]1c1ccc(F)cc1", "note": "+ Cc1nc(NC(=O)N2CCCC2C(N)=O)sc1-c1ccnc(C(C)(C)C(F)(F)F)c1", "values": [{"measurement": "IC50", "setting": "[1]", "result": "> 100", "unit": "nM"}, {"measurement": "IC50", "setting": "[2]", "result": "> 100", "unit": "nM"}, {"measurement": "IC50", "setting": "[3]", "result": "> 100", "unit": "nM"}, {"measurement": "IC50", "setting": "[4]", "result": "> 100", "unit": "nM"}, {"measurement": "IC50", "setting": "curve of first compound, second compound 3.16 µM", "result": "> 100", "unit": "nM"}, {"measurement": "IC50", "setting": "curve of first compound, second compound 10 µM", "result": "< 0.316", "unit": "nM"}, {"measurement": "viability, T/C", "setting": "second compound 0.0316 µM, first compound 0.000316 µM", "result": 120, "unit": "%"}, {"measurement": "viability, T/C", "setting": "second compound 0.0316 µM, first compound 0.001 µM", "result": 117, "unit": "%"}, {"measurement": "viability, T/C", "setting": "second compound 0.0316 µM, first compound 0.00316 µM", "result": 97.9, "unit": "%"}, {"measurement": "viability, T/C", "setting": "second compound 0.0316 µM, first compound 0.01 µM", "result": 90.3, "unit": "%"}, {"measurement": "viability, T/C", "setting": "[5]", "result": 99.9, "unit": "%"}, {"measurement": "viability, T/C", "setting": "[6]", "result": 99, "unit": "%"}, {"measurement": "viability, T/C", "setting": "second compound 0.1 µM, first compound 0.000316 µM", "result": 113, "unit": "%"}, {"measurement": "viability, T/C", "setting": "second compound 0.1 µM, first compound 0.001 µM", "result": 101, "unit": "%"}, {"measurement": "viability, T/C", "setting": "second compound 0.1 µM, first compound 0.00316 µM", "result": 79.5, "unit": "%"}, {"measurement": "viability, T/C", "setting": "second compound 0.1 µM, first compound 0.01 µM", "result": 84.9, "unit": "%"}, {"measurement": "viability, T/C", "setting": "[7]", "result": 91.2, "unit": "%"}, {"measurement": "viability, T/C", "setting": "[8]", "result": 83.2, "unit": "%"}, {"measurement": "viability, T/C", "setting": "second compound 0.316 µM, first compound 0.000316 µM", "result": 88.3, "unit": "%"}, {"measurement": "viability, T/C", "setting": "second compound 0.316 µM, first compound 0.001 µM", "result": 85, "unit": "%"}, {"measurement": "viability, T/C", "setting": "second compound 0.316 µM, first compound 0.00316 µM", "result": 84.1, "unit": "%"}, {"measurement": "viability, T/C", "setting": "second compound 0.316 µM, first compound 0.01 µM", "result": 89.8, "unit": "%"}, {"measurement": "viability, T/C", "setting": "[9]", "result": 90.8, "unit": "%"}, {"measurement": "viability, T/C", "setting": "[10]", "result": 77.3, "unit": "%"}, {"measurement": "viability, T/C", "setting": "second compound 1 µM, first compound 0.000316 µM", "result": 76.6, "unit": "%"}, {"measurement": "viability, T/C", "setting": "second compound 1 µM, first compound 0.001 µM", "result": 70.9, "unit": "%"}, {"measurement": "viability, T/C", "setting": "second compound 1 µM, first compound 0.00316 µM", "result": 78.5, "unit": "%"}, {"measurement": "viability, T/C", "setting": "second compound 1 µM, first compound 0.01 µM", "result": 77.9, "unit": "%"}, {"measurement": "viability, T/C", "setting": "[11]", "result": 76.7, "unit": "%"}, {"measurement": "viability, T/C", "setting": "[12]", "result": 68.3, "unit": "%"}, {"measurement": "viability, T/C", "setting": "second compound 3.16 µM, first compound 0.000316 µM", "result": 53.7, "unit": "%"}, {"measurement": "viability, T/C", "setting": "second compound 3.16 µM, first compound 0.001 µM", "result": 69.4, "unit": "%"}, {"measurement": "viability, T/C", "setting": "second compound 3.16 µM, first compound 0.00316 µM", "result": 64, "unit": "%"}, {"measurement": "viability, T/C", "setting": "second compound 3.16 µM, first compound 0.01 µM", "result": 61.1, "unit": "%"}, {"measurement": "viability, T/C", "setting": "second compound 3.16 µM, first compound 0.0316 µM", "result": 62, "unit": "%"}, {"measurement": "viability, T/C", "setting": "second compound 3.16 µM, first compound 0.1 µM", "result": 58.4, "unit": "%"}, {"measurement": "viability, T/C", "setting": "second compound 10 µM, first compound 0.000316 µM", "result": 42.5, "unit": "%"}, {"measurement": "viability, T/C", "setting": "second compound 10 µM, first compound 0.001 µM", "result": 51.5, "unit": "%"}, {"measurement": "viability, T/C", "setting": "second compound 10 µM, first compound 0.00316 µM", "result": 49.5, "unit": "%"}, {"measurement": "viability, T/C", "setting": "second compound 10 µM, first compound 0.01 µM", "result": 44.2, "unit": "%"}, {"measurement": "viability, T/C", "setting": "second compound 10 µM, first compound 0.0316 µM", "result": 55.1, "unit": "%"}, {"measurement": "viability, T/C", "setting": "second compound 10 µM, first compound 0.1 µM", "result": 40.8, "unit": "%"}]}]}
